Consider one compound from patent US5169984A, “Synthesis and characterization of N-bromoacetyl-3,3'5-triiodo-L-thyronine using high speed countercurrent chromatography” (The United States of America as represented by the …, priority 1990, dated 1992).

The conditions of this data set: crude, prior to HSCCC; ethyl acetate, well-sealed container, -20° C., over four months. The protocol: Chromatograms were monitored by radioactivity. In FIG. 2A the sample was freshly prepared while in FIG. 2B the sample was stored for 4.2 months in ethyl acetate at -20° C. […] Other conditions were the same as in FIGS. 1A and 1B.

Consider `O=C(CBr)N[C@@H](Cc1cc(I)c(Oc2ccc(O)c(I)c2)c(I)c1)C(=O)O` [BrAc[^125 I]T3, ^125 I-labeled N-bromoacetyl-3,3',5-triiodo-L-thyronine], for which the decomposition on storage entry was “partial decomposition”.
